Experimental data from patent US4517181A, “Mammalian PGRF” (The Salk Institute for Biological Studies, priority 1982, dated 1985).

Legend:
[1] = tested on: cells of rat pituitary glands; assay: in vitro GH release, rat pituitary cell monolayer culture bioassay (ir GH by radioimmunoassay); format: cell-based; conditions: for GH secretion in vitro % of controls: Table I
Method: To determine the effectiveness of the peptides to promote the release of growth hormone, in vitro assays are carried out using synthetic PGRF (1-40) of Example II in side-by-side comparison with equimolar concentrations of the extracted and purified native PGRF (1-40) and of a GRF Reference Standard having a known effectiveness to promote the release of growth hormone from pituitary cells. The GRF Reference standard is described and defined in Brazeau, et al., Endocrinology, Vol. 110, A538(1982) and is an amount of a preparation of rat hypothalamic origin that produces a half-maximal response in terms of GH release in a pituitary cell monolayer bioassay. Cultures are used which include cells of rat pituitary glands removed some four to five days previously. Both cultures of a defined standard medium and cultures which are considered optimal for the secretion of growth hormone are used for the comparative testing, in the general manner described in Brazeau, et al. Regulatory Peptides, 1, 255, 1981. Incubation with the substance to be tested is carried out for 3 to 4 hours, and aliquots of the culture medium are removed and processed to measure their contents in inmunoreactive GH(ir GH) by a well-characterized radioimmunoassay.
The in vitro assays described in Example VII are repeated using Native PGRF(1-40) and Native PGRF(1-44) and the results are set forth in following Table III: […]

[2] = tested on: pituitary growth hormone release (serum ir-GH); assay: in vivo release of pituitary growth hormone after one single intravenous injection in normal rats; set-up: species or system rat; conditions: for serum ir-GH: rat
From the text: In addition to the in vitro tests for secretion of growth hormone, in vivo experiments were also run by injecting the synthetic peptide into normal male rats about 200 g. body weight, anesthetized with pentobarbital.

Structure (SMILES): CC[C@H](C)[C@H](NC(=O)[C@H](C)NC(=O)[C@H](CC(=O)O)NC(=O)[C@H](C)NC(=O)[C@@H](N)Cc1ccc(O)cc1)C(=O)N[C@@H](Cc1ccccc1)C(=O)N[C@H](C(=O)N[C@@H](CC(N)=O)C(=O)N[C@@H](CO)C(=O)N[C@@H](Cc1ccc(O)cc1)C(=O)N[C@@H](CCCNC(=N)N)C(=O)N[C@@H](CCCCN)C(=O)N[C@H](C(=O)N[C@@H](CC(C)C)C(=O)NCC(=O)N[C@@H](CCC(N)=O)C(=O)N[C@@H](CC(C)C)C(=O)N[C@@H](CO)C(=O)N[C@@H](C)C(=O)N[C@@H](CCCNC(=N)N)C(=O)N[C@@H](CCCCN)C(=O)N[C@@H](CC(C)C)C(=O)N[C@@H](CC(C)C)C(=O)N[C@@H](CCC(N)=O)C(=O)N[C@@H](CC(=O)O)C(=O)N[C@H](C(=O)N[C@@H](CCSC)C(=O)N[C@@H](CO)C(=O)N[C@@H](CCCNC(=N)N)C(=O)N[C@@H](CCC(N)=O)C(=O)N[C@@H](CCC(N)=O)C(=O)NCC(=O)N[C@@H](CCC(=O)O)C(=O)N[C@@H](CO)C(=O)N[C@@H](CC(N)=O)C(=O)N[C@@H](CCC(N)=O)C(=O)N[C@@H](CCC(=O)O)C(=O)N[C@@H](CCCNC(=N)N)C(=O)NCC(=O)N[C@@H](C)C(=O)O)[C@@H](C)CC)C(C)C)[C@@H](C)O [Synthetic PGRF (1-40), PGRF (1-40)]
- ED50 ([1]; GH release in vitro, Example VII): about 113 picograms
- GH secretion in vitro % of controls ([1]; 10 fmoles): 269 ± 20 % of controls
- GH secretion in vitro % of controls ([1]; 100 fmoles): 701 ± 6 % of controls
- GH secretion in vitro % of controls ([1]; 1000 fmoles): 990 ± 42 % of controls
- biological activity compared with the native peptide ([1]; equimolar ratios, Example VII): has the full biological activity of the native peptide
- serum ir-GH ([2]; 0.01 μg i.v., +5 min): 284 ± 20 nanograms/ml
- serum ir-GH ([2]; 0.01 μg i.v., +10 min): 238 ± 51 nanograms/ml
- serum ir-GH ([2]; 0.01 μg i.v., +15 min): 201 ± 47 nanograms/ml
- serum ir-GH ([2]; 0.01 μg i.v., +30 min): 261 ± 50 nanograms/ml
- serum ir-GH ([2]; 0.01 μg i.v., +60 min): 299 ± 25 nanograms/ml
- serum ir-GH ([2]; 0.01 μg i.v., -1 min (before injection)): 173 ± 23 nanograms/ml
- serum ir-GH ([2]; 0.1 μg i.v., +5 min): 694 ± 246 nanograms/ml
- serum ir-GH ([2]; 0.1 μg i.v., +10 min): 582 ± 290 nanograms/ml
- serum ir-GH ([2]; 0.1 μg i.v., +15 min): 758 ± 562 nanograms/ml
- serum ir-GH ([2]; 0.1 μg i.v., +30 min): 280 ± 70 nanograms/ml
- serum ir-GH ([2]; 0.1 μg i.v., +60 min): 424 ± 129 nanograms/ml
- serum ir-GH ([2]; 0.1 μg i.v., -1 min (before injection)): 276 ± 126 nanograms/ml
- serum ir-GH ([2]; 1.0 μg i.v., +5 min): 4551 ± 1825 nanograms/ml
- serum ir-GH ([2]; 1.0 μg i.v., +10 min): 1748 ± 564 nanograms/ml
- serum ir-GH ([2]; 1.0 μg i.v., +15 min): 730 ± 158 nanograms/ml
- serum ir-GH ([2]; 1.0 μg i.v., +30 min): 234 ± 53 nanograms/ml
- serum ir-GH ([2]; 1.0 μg i.v., +60 min): 267 ± 129 nanograms/ml
- serum ir-GH ([2]; 1.0 μg i.v., -1 min (before injection)): 142 ± 24 nanograms/ml
- serum ir-GH ([2]; 10.0 μg i.v., +5 min): 7077 ± 1943 nanograms/ml
- serum ir-GH ([2]; 10.0 μg i.v., +10 min): 4676 ± 585 nanograms/ml
- serum ir-GH ([2]; 10.0 μg i.v., +15 min): 2464 ± 378 nanograms/ml
- serum ir-GH ([2]; 10.0 μg i.v., +30 min): 616 ± 112 nanograms/ml
- serum ir-GH ([2]; 10.0 μg i.v., +60 min): 223 ± 26 nanograms/ml
- serum ir-GH ([2]; 10.0 μg i.v., -1 min (before injection)): 234 ± 76 nanograms/ml

Structure (SMILES): CC[C@H](C)[C@H](NC(=O)[C@H](C)NC(=O)[C@H](CC(=O)O)NC(=O)[C@H](C)NC(=O)[C@@H](N)Cc1ccc(O)cc1)C(=O)N[C@@H](Cc1ccccc1)C(=O)N[C@H](C(=O)N[C@@H](CC(N)=O)C(=O)N[C@@H](CO)C(=O)N[C@@H](Cc1ccc(O)cc1)C(=O)N[C@@H](CCCNC(=N)N)C(=O)N[C@@H](CCCCN)C(=O)N[C@H](C(=O)N[C@@H](CC(C)C)C(=O)NCC(=O)N[C@@H](CCC(N)=O)C(=O)N[C@@H](CC(C)C)C(=O)N[C@@H](CO)C(=O)N[C@@H](C)C(=O)N[C@@H](CCCNC(=N)N)C(=O)N[C@@H](CCCCN)C(=O)N[C@@H](CC(C)C)C(=O)N[C@@H](CC(C)C)C(=O)N[C@@H](CCC(N)=O)C(=O)N[C@@H](CC(=O)O)C(=O)N[C@H](C(=O)N[C@@H](CCSC)C(=O)N[C@@H](CO)C(=O)N[C@@H](CCCNC(=N)N)C(=O)N[C@@H](CCC(N)=O)C(=O)N[C@@H](CCC(N)=O)C(=O)NCC(=O)N[C@@H](CCC(=O)O)C(=O)N[C@@H](CO)C(=O)N[C@@H](CC(N)=O)C(=O)N[C@@H](CCC(N)=O)C(=O)N[C@@H](CCC(=O)O)C(=O)N[C@@H](CCCNC(=N)N)C(=O)NCC(=O)N[C@@H](C)C(=O)N[C@@H](CCCNC(=N)N)C(=O)N[C@@H](C)C(=O)N[C@@H](CCCNC(=N)N)C(=O)N[C@@H](CC(C)C)C(N)=O)[C@@H](C)CC)C(C)C)[C@@H](C)O [synthetic PGRF(1-44)-amide, PGRF(1-44)-amide]
- potency compared with native PGRF(1-44) (further testing) [1]: substantially the same potency as native PGRF(1-44)
- GH-releasing activity when injected in laboratory animals (rats) ([2]; compared with PGRF(1-40) in Table II): shows the same type of GH-releasing activity as PGRF(1-40)

Structure (SMILES): CC[C@H](C)[C@H](NC(=O)[C@H](C)NC(=O)[C@H](CC(=O)O)NC(=O)[C@H](C)NC(=O)[C@@H](N)Cc1ccc(O)cc1)C(=O)N[C@@H](Cc1ccccc1)C(=O)N[C@H](C(=O)N[C@@H](CC(N)=O)C(=O)N[C@@H](CO)C(=O)N[C@@H](Cc1ccc(O)cc1)C(=O)N[C@@H](CCCNC(=N)N)C(=O)N[C@@H](CCCCN)C(=O)N[C@H](C(=O)N[C@@H](CC(C)C)C(=O)NCC(=O)N[C@@H](CCC(N)=O)C(=O)N[C@@H](CC(C)C)C(=O)N[C@@H](CO)C(=O)N[C@@H](C)C(=O)N[C@@H](CCCNC(=N)N)C(=O)N[C@@H](CCCCN)C(=O)N[C@@H](CC(C)C)C(=O)N[C@@H](CC(C)C)C(=O)N[C@@H](CCC(N)=O)C(=O)N[C@@H](CC(=O)O)C(=O)N[C@H](C(=O)N[C@@H](CCSC)C(=O)N[C@@H](CO)C(=O)N[C@@H](CCCNC(=N)N)C(=O)N[C@@H](CCC(N)=O)C(=O)N[C@@H](CCC(N)=O)C(=O)NCC(=O)N[C@@H](CCC(=O)O)C(=O)N[C@@H](CO)C(=O)N[C@@H](CC(N)=O)C(=O)N[C@@H](CCC(N)=O)C(=O)N[C@@H](CCC(=O)O)C(=O)N[C@@H](CCCNC(=N)N)C(=O)NCC(=O)N[C@@H](C)C(=O)N[C@@H](CCCNC(=N)N)C(=O)N[C@@H](C)C(=O)N[C@@H](CCCNC(=N)N)C(=O)N[C@@H](CC(C)C)C(=O)O)[C@@H](C)CC)C(C)C)[C@@H](C)O [synthetic PGRF(1-44)-free acid, PGRF(1-44) free acid]
- potency compared with native PGRF(1-44) (further testing) [1]: somewhat less potency than native PGRF(1-44)
